These results are taken from ChEMBL document CHEMBL5154869, “Discovery of 4-((E)-3,5-dimethoxy-2-((E)-2-nitrovinyl)styryl)aniline derivatives as potent and orally active NLRP3 inflammasome inhibitors for colitis” (Eur J Med Chem, 2022).

Data set [1] can be described thus: Metabolic stability in human liver microsomes assessed as intrinsic clearance by LC-MS/MS analysis. In kind it is ADME, Microsome. The following applies: read-out: CLH. A general note: Liver microsomes are a subcellular fraction often used to study metabolism.
In data set [2] the target is NACHT, LRR and PYD domains-containing protein 3 (Mus musculus) (UniProt Q8R4B8). The experiment in a line: Inhibition of NLRP3 inflammasome activation in LPS/nigericin-treated C57BL/6 mouse bone marrow-derived macrophages assessed as reduction in activated caspase 1(P20) level in culture supernatants preincubated for 3 hrs with LPS and for 30 mins with compound prior to nigericin addition and measured after 30 mins by Western blot analysis. In kind it is cell-based. The following applies: BMDM, dose 0.5-2 µM, time 60.0 min, DDE = dose-dependent effect.

For data set [3] the target is unchanged. Nature of the data set: Inhibition of NLRP3 inflammasome activation in LPS/nigericin-treated C57BL/6 mouse bone marrow-derived macrophages assessed as reduction in activated caspase 1(P20) level in cell lysates at 0.5 to 2 uM preincubated for 3 hrs with LPS and for 30 mins with compound prior to nigericin addition and measured after 30 mins by Western blot analysis. Format: […]. The following applies: BMDM, dose 0.5-2 µM, time 60.0 min, DDE = dose-dependent effect.

Data set [4] in a line: Inhibition of LPS/nigericin-induced reactive oxygen species production in C57BL/6 mouse bone marrow-derived macrophages assessed as ROS level at 1 uM by DCFH-DA staining based flow cytometry (reference value: 33.51%). In kind it is functional, BMDM. Also on record: scale not given: the % may be the effect or the level left. For orientation: A flow cytometer gives signals particle by particle.

The target in data set [5] is NACHT, LRR and PYD domains-containing protein 3 (Mus musculus) (UniProt Q8R4B8). The experiment in a line: Inhibition of NLRP3 inflammasome activation in LPS/nigericin-treated C57BL/6 mouse bone marrow-derived macrophages assessed as reduction in ASC-NLRP3 protein-protein interaction at 2 to 4 uM preincubated for 3 hrs with LPS and for 30 mins with compound prior to nigericin addition and measured after 30 mins by immunoprecipitation method. Format: cell-based. The note with it: BMDM, dose 2-4 µM, time 60.0 min.

The subject of data set [6] is Mus musculus. Nature of the data set: Anti-colitis activity against DSS-induced colitis C57BL/6 mouse model assessed as reduction in colon shortening at 10 to 20 mg/kg, po administered once a day. Format: functional, organism-based. The following applies: dose 10-20 mg/kg.
Data set [7] has as its system Mus musculus. Nature of the data set: Anti-colitis activity against DSS-induced colitis C57BL/6 mouse model assessed as reduction in IL-6 level in colon at 10 to 20 mg/kg, po administered once a day and measured on day 8 by ELISA. In kind it is functional, organism-based. The note with it: dose 10-20 mg/kg, time 8.0 day. In general terms: An ELISA detects its analyte on a solid surface through an enzyme-linked reagent.

For data set [8], the target named is NACHT, LRR and PYD domains-containing protein 3 (Mus musculus) (UniProt Q8R4B8). Nature of the data set: Inhibition of NLRP3 inflammasome activation in LPS/MSU-treated C57BL/6 mouse bone marrow-derived macrophages assessed as reduction in activated caspase 1(P20) level in culture supernatants preincubated for 3 hrs with LPS and for 30 mins with compound prior to MSU addition and measured after 30 mins by Western blot analysis. In kind it is cell-based. The note with it: BMDM, time 60.0 min.

Activity calls are given as the source filed them. The calls are words filed in the database; no cut-off is given here.

NACHT, LRR and PYD domains-containing protein 3 (Mus musculus), sequence (Q8R4B8 whole entry, the tested form may be a part): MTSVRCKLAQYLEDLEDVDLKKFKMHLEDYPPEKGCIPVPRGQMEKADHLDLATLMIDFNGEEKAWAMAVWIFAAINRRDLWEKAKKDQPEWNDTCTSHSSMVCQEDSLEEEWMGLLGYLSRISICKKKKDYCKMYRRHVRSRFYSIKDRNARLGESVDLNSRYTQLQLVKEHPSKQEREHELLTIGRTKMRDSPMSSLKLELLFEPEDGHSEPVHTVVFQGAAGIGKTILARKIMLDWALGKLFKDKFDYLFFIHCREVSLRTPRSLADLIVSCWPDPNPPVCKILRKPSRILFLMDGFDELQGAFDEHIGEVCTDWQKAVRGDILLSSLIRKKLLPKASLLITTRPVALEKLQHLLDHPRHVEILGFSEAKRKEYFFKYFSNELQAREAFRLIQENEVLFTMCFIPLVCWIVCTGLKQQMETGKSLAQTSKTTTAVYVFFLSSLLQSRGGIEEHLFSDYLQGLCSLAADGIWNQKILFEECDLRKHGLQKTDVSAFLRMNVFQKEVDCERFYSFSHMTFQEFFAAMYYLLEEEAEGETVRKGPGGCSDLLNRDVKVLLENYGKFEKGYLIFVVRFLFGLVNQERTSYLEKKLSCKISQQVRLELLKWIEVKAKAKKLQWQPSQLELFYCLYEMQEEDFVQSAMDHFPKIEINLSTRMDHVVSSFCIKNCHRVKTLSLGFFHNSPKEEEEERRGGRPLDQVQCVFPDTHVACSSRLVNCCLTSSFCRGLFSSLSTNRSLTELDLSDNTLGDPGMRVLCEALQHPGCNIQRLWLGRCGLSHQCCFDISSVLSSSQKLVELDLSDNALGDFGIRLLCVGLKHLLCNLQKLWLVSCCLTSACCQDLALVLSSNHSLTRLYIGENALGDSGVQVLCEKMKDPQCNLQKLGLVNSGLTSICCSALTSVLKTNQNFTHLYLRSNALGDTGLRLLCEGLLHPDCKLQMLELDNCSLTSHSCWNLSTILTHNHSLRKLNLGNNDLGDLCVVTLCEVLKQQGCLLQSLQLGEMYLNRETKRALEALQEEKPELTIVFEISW

Turning to `COc1cc(/C=C/c2ccc(NC(=O)c3ccco3)cc2)c(/C=C/[N+](=O)[O-])c(OC)c1`, in data set [1], the microsomal CLint is 10 µL/min/mg. The inhibition entry in data set [2] and in data set [3] was “Dde” in each case. In addition, the Activity in data set [4] was determined as 30.5%. Also, the inhibition result in data set [5] and in data set [8] was “Active” in each case. In addition, the result in the data set on Mus musculus [6] and in the data set on Mus musculus [7] was Active.
